Measurements reported in US5043336A (priority 1990, dated 1991).
Where a name gives a salt, the structure may show the parent alone.

Assays:
[1] = tested on: CCRF-CEM cell line (human leukemic cells); assay: CCRF-CEM Cytotoxicity Assay (growth inhibition of human leukemic cells, 72 h); type: cell-based; conditions: 37° C.; for IC50: Homo sapiens, CCRF-CEM, 72 h, read-out: IC50 (concentration giving 50% growth inhibition)
Experimental: The CEM cells were grown in RPMI 1640 media (MA Bioproducts) at 37° C. in humidified atmospheric conditions of 95% air and 5% carbon dioxide. The cells were grown in static suspension and maintained in log growth phase at a concentration of 3-7×10^5 cells/ml. The cells were dispersed in wells at a concentration of 4.8×10^4 /well. The drug was dissolved in dimethyl sulfoxide or water and was added at different dilutions to the cluster plates (wells). The cluster plates were incubated at 37° C. for 72 hours. After 72 hours the wells were read using a ZBI Coulter particle counter. Table 2 below gives the results of such testing of several compounds represented by Formula I above. In the table, Column 1 gives the name of the compound and Column 2 gives the IC50 (concentration giving 50% growth inhibition) in μg/ml.

pKa (66% DMF) = type: physicochemical
[2] = trial test of the water solubility of the salt; type: physicochemical; conditions: after adjusting pH to 3.6, before additional 0.5 ml of 2% sulfuric acid
Experimental: All of the 4-desacetyl VLB C-3 N^2 -(hexahydro-2-methyl-7-oxo-1H-azepin-1-yl)carboxhydrazide prepared from Example 6 was dissolved in 50 ml of ethanol. The initial pH of 4.9 was adjusted to 3.6 with 2% sulfuric acid in ethanol. […] This material was evaporated to dryness in vacuo, which yielded 750 mg of the title compounds.

[3] = tested on: Ridgeway osteogenic sarcoma; conditions: transplanted tumors in mice; cited from earlier work
Gardner lymphosarcoma = conditions: transplanted tumors in mice; cited from earlier work
P1534(J) leukemia = conditions: transplanted tumors in mice; cited from earlier work
[4] = tested on: experimental malignancies; conditions: in vivo; cited from earlier work
[5] = in humans; cited from earlier work
[6] = tested on: vincristine-resistant leukemias; conditions: in humans; cited from earlier work

Structure (SMILES): CC[C@]1(O)C[C@@H]2CN(CCc3c([nH]c4ccccc34)[C@@](C(=O)OC)(c3cc4c(cc3OC)N(C)[C@H]3[C@@](O)(C(=O)NN5C(=O)CCC5C)[C@H](O)[C@]5(CC)C=CCN6CC[C@]43[C@@H]65)C2)C1 (single isomer, unassigned) [4-Desacetyl VLB C-3 N^2 -(2-methyl-5-oxo-1-pyrrolidinyl)carb] [4-Desacetyl VLB C-3 N^2-(2-methyl-5-oxo-1-pyrrolidinyl)carboxhydrazide(Isomer 2) sulfate salt]
- IC50 (concentration giving 50% growth inhibition) ([1]; sulfate salt): 0.09 µg/mL

Structure (SMILES): CC[C@]1(O)C[C@@H]2CN(CCc3c([nH]c4ccccc34)[C@@](C(=O)OC)(c3cc4c(cc3OC)N(C)[C@H]3[C@@](O)(C(=O)NN5C(=O)CCC5C)[C@H](O)[C@]5(CC)C=CCN6CC[C@]43[C@@H]65)C2)C1 (single isomer, unassigned) [4-Desacetyl VLB C-3 N^2-(2-methyl-5-oxo-1-pyrrolidinyl)carboxhydrazide(Isomer 1) sulfate salt]
- IC50 [1]: 0.1 µg/mL

Structure (SMILES): CC[C@]1(O)C[C@@H]2CN(CCc3c([nH]c4ccccc34)[C@@](C(=O)OC)(c3cc4c(cc3OC)N(C)[C@H]3[C@@](O)(C(=O)N5N=C(C)CCCC5=O)[C@H](O)[C@]5(CC)C=CCN6CC[C@]43[C@@H]65)C2)C1 [4-Desacetyl VLB C-3 N^1-(4,5,6,7-tetrahydro-3-methyl-7-oxo-1H-1,2-diazepin-1-yl)carboxhydrazide sulfate salt]
- IC50 [1]: 0.019 µg/mL

Structure (SMILES): CC[C@]1(O)C[C@@H]2CN(CCc3c([nH]c4ccccc34)[C@@](C(=O)OC)(c3cc4c(cc3OC)N(C)[C@H]3[C@@](O)(C(=O)NNC(C)CCC(=O)O)[C@H](O)[C@]5(CC)C=CCN6CC[C@]43[C@@H]65)C2)C1 (some centres unmarked) [4-Desacetyl VLB C-3 N^2-(3-carboxy-1-methylpropyl)carboxhydrazide]
- pKa (pKa (66% DMF); first value listed): 5.3
- pKa (pKa (66% DMF); second value listed): 6.9
- pKa (pKa (66% DMF); third value listed): 7.9

Structure (SMILES): CC[C@]1(O)C[C@@H]2CN(CCc3c([nH]c4ccccc34)[C@@](C(=O)OC)(c3cc4c(cc3OC)N(C)[C@H]3[C@@](O)(C(=O)NN=C(C)CCCC(=O)O)[C@H](O)[C@]5(CC)C=CCN6CC[C@]43[C@@H]65)C2)C1 [4-Desacetyl VLB C-3 N^2-(4-carboxy-1-methylbutylidene)carboxhydrazide]
- pKa (pKa (66% DMF); first value listed): 5.1
- pKa (pKa (66% DMF); second value listed): 6.6
- pKa (pKa (66% DMF); third value listed): 7.7

Structure (SMILES): CC[C@]1(O)C[C@@H]2CN(CCc3c([nH]c4ccccc34)[C@@](C(=O)OC)(c3cc4c(cc3OC)N(C)[C@H]3[C@@](O)(C(=O)NN=C(C)CCCCC(=O)O)[C@H](O)[C@]5(CC)C=CCN6CC[C@]43[C@@H]65)C2)C1 [4-Desacetyl VLB C-3 N^2-(5-carboxy-1-methylpentylidene)carboxhydrazide]
- pKa (pKa (66% DMF); first value listed): 5.3
- pKa (pKa (66% DMF); second value listed): 7
- pKa (pKa (66% DMF); third value listed): 8.1

Structure (SMILES): CC[C@]1(O)C[C@@H]2CN(CCc3c([nH]c4ccccc34)[C@@](C(=O)OC)(c3cc4c(cc3OC)N(C)[C@H]3[C@@](O)(C(=O)NN5C(=O)CCCCC5C)[C@H](O)[C@]5(CC)C=CCN6CC[C@]43[C@@H]65)C2)C1 (some centres unmarked) [4-Desacetyl VLB C-3 N^2-(hexahydro-2-methyl-7-oxo-1H-azepin-1-yl)carboxhydrazide sulfate salt]
- IC50 [1]: 0.0056 µg/mL
- water solubility of the salt [2]: not completely soluble

Structure (SMILES): CC[C@]1(O)C[C@@H]2CN(CCc3c([nH]c4ccccc34)[C@@](C(=O)OC)(c3cc4c(cc3OC)N(C)[C@H]3[C@@](O)(C(=O)NN)[C@H](O)[C@]5(CC)C=CCN6CC[C@]43[C@@H]65)C2)C1 [4-Desacetyl VLB C-3 carboxhydrazide]
- activity against Ridgeway osteogenic sarcoma [3]: active
- activity against Gardner lymphosarcoma (Gardner lymphosarcoma): active
- activity against P1534(J) leukemia (P1534(J) leukemia): active

Structure (SMILES): CCC1(O)CN2CCc3c([nH]c4ccccc34)C(C(=O)OC)(c3cc4c(cc3OC)N(C)C3C(O)(C(=O)OC)CC5(CC)C=CCN6CCC43C65)CC(C2)C1O (centres unmarked) [4-desacetoxy-3'-hydroxyvinblastine]
- activity in the treatment of experimental malignancies in animals [4]: active

Structure (SMILES): CC[C@]1(O)C[C@@H]2CN(CCc3c([nH]c4ccccc34)[C@@](C(=O)OC)(c3cc4c(cc3OC)N(C)[C@@H]3[C@]45CCN4CC=C[C@@](CC)(C[C@]3(O)C(=O)OC)[C@H]45)C2)C1 [4-desacetoxyvinblastine]
- activity in the treatment of experimental malignancies in animals [4]: active

Structure (SMILES): CC[C@]1(O)C[C@@H]2CN(CCc3c([nH]c4ccccc34)[C@@](C(=O)OC)(c3cc4c(cc3OC)N(C)[C@H]3[C@@](O)(C(=O)OC)[C@H](OC(C)=O)[C@]5(CC)C=CCN6CC[C@]43[C@@H]65)C2)C1 [VLB, vincaleukoblastine]
- activity in the treatment of experimental malignancies in animals [4]: active

Structure (SMILES): CCC1CC2CN(CCc3c([nH]c4ccccc34)C(C(=O)OC)(c3cc4c(cc3OC)N(C)C3C(O)(C(=O)OC)C(OC(C)=O)C5(CC)C=CCN6CCC43C65)C2)C1 (centres unmarked) [deoxy VLB "A"]
- activity in the treatment of experimental malignancies in animals [4]: active

Structure (SMILES): CCC1(O)CN2CCc3c([nH]c4ccccc34)C(C(=O)OC)(c3cc4c(cc3OC)N(C)C3C(O)(C(=O)OC)C(OC(C)=O)C5(CC)C=CCN6CCC43C65)CC(O)(C2)C1 (centres unmarked) [leurocolombine]
- activity in the treatment of experimental malignancies in animals [4]: active

Structure (SMILES): CC[C@]12CN3CCc4c([nH]c5ccccc45)[C@@](C(=O)OC)(c4cc5c(cc4OC)N(C=O)[C@H]4[C@@](O)(C(=O)OC)[C@H](OC(C)=O)[C@]6(CC)C=CCN7CC[C@]54[C@@H]76)C[C@@H](C3)[C@H]1O2 [leuroformine]
- activity in the treatment of experimental malignancies in animals [4]: active

Structure (SMILES): CC[C@@]1(O)C[C@@H]2CN(CCc3c([nH]c4ccccc34)[C@@](C(=O)OC)(c3cc4c(cc3OC)N(C)[C@H]3[C@@](O)(C(=O)OC)[C@H](OC(C)=O)[C@]5(CC)C=CCN6CC[C@]43[C@@H]65)C2)C1 [leurosidine]
- activity in the treatment of experimental malignancies in animals [4]: active

Structure (SMILES): CC[C@]12CN3CCc4c([nH]c5ccccc45)[C@@](C(=O)OC)(c4cc5c(cc4OC)N(C)[C@H]4[C@@](O)(C(=O)OC)[C@H](OC(C)=O)[C@]6(CC)C=CCN7CC[C@]54[C@@H]76)C[C@H](C3)[C@H]1O2 [leurosine]
- activity in the treatment of experimental malignancies in animals [4]: active

Structure (SMILES): CCC1(O)CN2CCc3c([nH]c4ccccc34)C(C(=O)OC)(c3cc4c(cc3OC)N(C)C3C(O)(C(=O)OC)C(OC(C)=O)C5(CC)C=CCN6CCC43C65)CC(C2)C1O (centres unmarked) [vincadioline]
- activity in the treatment of experimental malignancies in animals [4]: active

Structure (SMILES): CC[C@]1(O)C[C@H]2CN(CCc3c([nH]c4ccccc34)[C@@](C(=O)OC)(c3cc4c(cc3OC)N(C=O)[C@H]3[C@@](O)(C(=O)OC)[C@H](OC(C)=O)[C@]5(CC)C=CCN6CC[C@]43[C@@H]65)C2)C1 [vincristine]
- activity in the treatment of experimental malignancies in animals [4]: active

Structure (SMILES): CC[C@]1(O)C[C@@H]2CN(CCc3c([nH]c4ccccc34)[C@@](C(=O)OC)(c3cc4c(cc3OC)N(C)[C@H]3[C@@](O)(C(N)=O)[C@H](O)[C@]5(CC)C=CCN6CC[C@]43[C@@H]65)C2)C1 [vindesine, 4-desacetyl VLB C-3 carboxamide]
- neurotoxicity compared with vincristine [5]: less neurotoxicity than does vincristine
- effectiveness against vincristine-resistant leukemias [6]: apparently effective
